pEC50: −log10 of the molar value. Like-named read-outs stand apart in the source and are kept apart here.
Legend:
Assay type in all cases: cell-based
[1] = target: T1, human GLP-1 receptor (GLP-1R) (Homo sapiens, UniProt P43220); test: cAMP assay, human GLP-1R cells; details: for pEC50: cAMP assay; for EC50: mean of n1 and n2, read-out: Mean pM GLP-1R
T1 construct: expressed in transfected cells
Summary of the method: (§1)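 Peptide-stimulated cAMP measured by two-step HTRF after a 30 min room-temperature incubation with receptor-expressing cells (hGLP-1R, hGIPR at 1×10^5 cells/ml; hGCGR at 2×10^5 cells/ml). Duplicate dilutions; EC50 from 4-parameter logistic fit of % Delta F.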

[2] = target: T2, human glucagon receptor (GCGR) (Homo sapiens, UniProt P47871); test: cAMP assay, human GCGR cells; details: cAMP assay
T2 construct: expressed in transfected cells
Summary of the method: as §1

[3] = target: T3, human glucose-dependent insulinotropic peptide receptor (GIPR) (Homo sapiens, UniProt P48546); test: cAMP assay, human GIPR cells; details: cAMP assay
T3 construct: expressed in transfected cells
T3 sequence (P48546 22-466): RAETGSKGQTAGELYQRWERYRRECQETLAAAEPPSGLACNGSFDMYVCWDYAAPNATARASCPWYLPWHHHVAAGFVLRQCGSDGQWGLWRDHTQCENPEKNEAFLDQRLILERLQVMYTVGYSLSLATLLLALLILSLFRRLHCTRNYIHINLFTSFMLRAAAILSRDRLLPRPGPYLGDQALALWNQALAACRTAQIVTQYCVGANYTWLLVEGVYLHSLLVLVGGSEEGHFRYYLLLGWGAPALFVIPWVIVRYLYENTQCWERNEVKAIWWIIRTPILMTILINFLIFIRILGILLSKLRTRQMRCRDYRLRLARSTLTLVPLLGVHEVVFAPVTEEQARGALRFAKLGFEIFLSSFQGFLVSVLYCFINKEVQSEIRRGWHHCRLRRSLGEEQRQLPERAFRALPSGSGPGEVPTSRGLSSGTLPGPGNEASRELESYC
Summary of the method: as §1

[4] = first determination (n1), read-out: Primary assay EC50 GLP-1R n1
[5] = first determination (n1), read-out: Primary assay EC50 Gluc-R (n1)
[6] = second determination (n2), read-out: Primary assay EC50 Gluc-R (n2)
[7] = first determination (n1), read-out: Primary assay EC50 GIP-R (n1)
[8] = second determination (n2), read-out: Primary assay EC50 GIP-R (n2)
[9] = second determination (n2), read-out: Primary assay EC50 GLP-1R n2

T1 sequence (P43220 24-463): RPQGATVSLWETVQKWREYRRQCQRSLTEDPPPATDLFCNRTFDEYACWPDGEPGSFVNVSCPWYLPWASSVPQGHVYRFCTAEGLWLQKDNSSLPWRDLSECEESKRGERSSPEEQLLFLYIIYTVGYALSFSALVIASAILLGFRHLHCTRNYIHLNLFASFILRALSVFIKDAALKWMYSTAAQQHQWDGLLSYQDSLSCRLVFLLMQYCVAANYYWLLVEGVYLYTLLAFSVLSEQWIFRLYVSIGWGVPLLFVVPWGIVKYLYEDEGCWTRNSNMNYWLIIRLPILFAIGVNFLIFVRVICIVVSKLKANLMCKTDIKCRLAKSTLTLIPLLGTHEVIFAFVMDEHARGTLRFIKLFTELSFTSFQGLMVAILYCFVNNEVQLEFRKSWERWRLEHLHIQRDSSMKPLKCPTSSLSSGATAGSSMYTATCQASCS
T2 sequence (P47871 26-477): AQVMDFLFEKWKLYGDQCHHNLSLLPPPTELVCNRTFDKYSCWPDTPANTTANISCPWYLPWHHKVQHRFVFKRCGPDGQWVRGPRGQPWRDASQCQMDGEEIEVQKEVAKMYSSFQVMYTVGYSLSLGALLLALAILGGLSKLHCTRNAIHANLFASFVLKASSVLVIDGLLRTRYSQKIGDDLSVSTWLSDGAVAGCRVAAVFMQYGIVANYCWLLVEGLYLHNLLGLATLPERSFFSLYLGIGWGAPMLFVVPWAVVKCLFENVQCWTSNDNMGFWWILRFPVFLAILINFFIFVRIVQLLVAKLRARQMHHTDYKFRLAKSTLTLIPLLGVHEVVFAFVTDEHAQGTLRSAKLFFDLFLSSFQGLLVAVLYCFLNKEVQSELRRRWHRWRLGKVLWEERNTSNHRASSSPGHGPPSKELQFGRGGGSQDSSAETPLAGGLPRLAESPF

| SMILES | pEC50 [1, 4] | pEC50 [2, 5] | pEC50 [2, 6] | pEC50 [3, 7] | pEC50 [3, 8] | pEC50 [1, 9] | EC50 [1] |
| --- | --- | --- | --- | --- | --- | --- | --- |
| CC[C@H](C)[C@H](NC(=O)[C@](C)(Cc1ccccc1)NC(=O)[C@H](CCC(=O)O)NC(=O)[C@H](CCCCNC(=O)CC[C@H](NC(=O)CC[C@H](NC(=O)CC[C@H](NC(=O)CCCCCCCCCCCCCCCCC(=O)O)C(=O)O)C(=O)O)C(=O)O)NC(=O)[C@H](C)NC(=O)[C@H](C)NC(=O)[C@H](CCC(=O)O)NC(=O)CNC(=O)[C@H](CCC(=O)O)NC(=O)[C@H](CC(C)C)NC(=O)[C@](C)(Cc1ccccc1)NC(=O)[C@H](CO)NC(=O)[C@](C)(CO)NC(=O)[C@@H](NC(=O)[C@H](CC(=O)O)NC(=O)[C@H](CO)NC(=O)[C@@H](NC(=O)[C@](C)(Cc1ccccc1)NC(=O)[C@H](CO)NC(=O)CNC(=O)[C@H](CCC(=O)O)NC(=O)C(C)(C)NC(=O)[C@@H](N)Cc1c[nH]cn1)[C@@H](C)O)C(C)C)C(=O)N[C@@H](C)C(=O)N[C@@](C)(Cc1ccccc1)C(=O)N[C@H](C(=O)N[C@H](C(=O)N[C@@](C)(CCCCN)C(=O)NCC(=O)NCC(N)=O)C(C)C)C(C)C [compound 157] | 9.62 | ≤ 7.59 | ≤ 7.59 | ≤ 7.59 | ≤ 7.59 | – | – |
| CC[C@H](C)[C@H](NC(=O)[C@](C)(Cc1ccccc1)NC(=O)[C@H](CCC(=O)O)NC(=O)[C@H](CCCCNC(=O)CCCCCNC(=O)CCCCCNC(=O)CCCCCCCCCCCCCCCCC(=O)O)NC(=O)[C@H](C)NC(=O)[C@H](C)NC(=O)[C@H](CCC(=O)O)NC(=O)CNC(=O)[C@H](CCC(=O)O)NC(=O)[C@H](CC(C)C)NC(=O)[C@](C)(Cc1ccccc1)NC(=O)[C@H](CO)NC(=O)[C@](C)(CO)NC(=O)[C@@H](NC(=O)[C@H](CC(=O)O)NC(=O)[C@H](CO)NC(=O)[C@@H](NC(=O)[C@](C)(Cc1ccccc1)NC(=O)[C@H](CO)NC(=O)CNC(=O)[C@H](CCC(=O)O)NC(=O)C(C)(C)NC(=O)[C@@H](N)Cc1c[nH]cn1)[C@@H](C)O)C(C)C)C(=O)N[C@@H](C)C(=O)N[C@@](C)(Cc1ccccc1)C(=O)N[C@H](C(=O)N[C@H](C(=O)N[C@@](C)(CCCCN)C(=O)NCC(=O)NCC(N)=O)C(C)C)C(C)C [compound 159] | 9.55 | ≤ 7.57 | ≤ 7.57 | ≤ 7.57 | ≤ 7.57 | 9.64 | 254 pM |
| CC[C@H](C)[C@H](NC(=O)[C@](C)(Cc1ccccc1)NC(=O)[C@H](CCC(=O)O)NC(=O)[C@H](CCCCNC(=O)CCCCCNC(=O)CCCCCNC(=O)CCCCCNC(=O)CCCCCCCCCCCCCCCCC(=O)O)NC(=O)[C@H](C)NC(=O)[C@H](C)NC(=O)[C@H](CCC(=O)O)NC(=O)CNC(=O)[C@H](CCC(=O)O)NC(=O)[C@H](CC(C)C)NC(=O)[C@](C)(Cc1ccccc1)NC(=O)[C@H](CO)NC(=O)[C@](C)(CO)NC(=O)[C@@H](NC(=O)[C@H](CC(=O)O)NC(=O)[C@H](CO)NC(=O)[C@@H](NC(=O)[C@](C)(Cc1ccccc1)NC(=O)[C@H](CO)NC(=O)CNC(=O)[C@H](CCC(=O)O)NC(=O)C(C)(C)NC(=O)[C@@H](N)Cc1c[nH]cn1)[C@@H](C)O)C(C)C)C(=O)N[C@@H](C)C(=O)N[C@@](C)(Cc1ccccc1)C(=O)N[C@H](C(=O)N[C@H](C(=O)N[C@@](C)(CCCCN)C(=O)NCC(=O)NCC(N)=O)C(C)C)C(C)C [compound 160] | 9.41 | ≤ 7.59 | ≤ 7.59 | ≤ 7.59 | ≤ 7.59 | 9.49 | 351 pM |
| CC[C@H](C)[C@H](NC(=O)[C@](C)(Cc1ccccc1)NC(=O)[C@H](CCC(=O)O)NC(=O)[C@H](CCCCNC(=O)COCCOCCNC(=O)CCCCCCCCCCCCCCCCC(=O)O)NC(=O)[C@H](C)NC(=O)[C@H](C)NC(=O)[C@H](CCC(=O)O)NC(=O)CNC(=O)[C@H](CCC(=O)O)NC(=O)[C@H](CC(C)C)NC(=O)[C@](C)(Cc1ccccc1)NC(=O)[C@H](CO)NC(=O)[C@](C)(CO)NC(=O)[C@@H](NC(=O)[C@H](CC(=O)O)NC(=O)[C@H](CO)NC(=O)[C@@H](NC(=O)[C@](C)(Cc1ccccc1)NC(=O)[C@H](CO)NC(=O)CNC(=O)[C@H](CCC(=O)O)NC(=O)C(C)(C)NC(=O)[C@@H](N)Cc1c[nH]cn1)[C@@H](C)O)C(C)C)C(=O)N[C@@H](C)C(=O)N[C@@](C)(Cc1ccccc1)C(=O)N[C@H](C(=O)N[C@H](C(=O)N[C@@](C)(CCCCN)C(=O)NCC(=O)NCC(N)=O)C(C)C)C(C)C [compound 161] | 9.80 | ≤ 7.57 | ≤ 7.57 | ≤ 7.57 | ≤ 7.57 | 10.21 | 112 pM |
| CC[C@H](C)[C@H](NC(=O)[C@](C)(Cc1ccccc1)NC(=O)[C@H](CCC(=O)O)NC(=O)[C@H](CCCCNC(=O)COCCOCCNC(=O)COCCOCCNC(=O)COCCOCCNC(=O)CCCCCCCCCCCCCCCCC(=O)O)NC(=O)[C@H](C)NC(=O)[C@H](C)NC(=O)[C@H](CCC(=O)O)NC(=O)CNC(=O)[C@H](CCC(=O)O)NC(=O)[C@H](CC(C)C)NC(=O)[C@](C)(Cc1ccccc1)NC(=O)[C@H](CO)NC(=O)[C@](C)(CO)NC(=O)[C@@H](NC(=O)[C@H](CC(=O)O)NC(=O)[C@H](CO)NC(=O)[C@@H](NC(=O)[C@](C)(Cc1ccccc1)NC(=O)[C@H](CO)NC(=O)CNC(=O)[C@H](CCC(=O)O)NC(=O)C(C)(C)NC(=O)[C@@H](N)Cc1c[nH]cn1)[C@@H](C)O)C(C)C)C(=O)N[C@@H](C)C(=O)N[C@@](C)(Cc1ccccc1)C(=O)N[C@H](C(=O)N[C@H](C(=O)N[C@@](C)(CCCCN)C(=O)NCC(=O)NCC(N)=O)C(C)C)C(C)C [compound 163] | 10.20 | ≤ 7.60 | ≤ 7.60 | ≤ 7.60 | ≤ 7.60 | 10.31 | 56 pM |

Next, values leading:

| pEC50 [1, 4] | pEC50 [2, 5] | pEC50 [2, 6] | pEC50 [3, 7] | pEC50 [3, 8] | pEC50 [1, 9] | EC50 [1] | SMILES |
| --- | --- | --- | --- | --- | --- | --- | --- |
| 10.66 | ≤ 7.55 | ≤ 7.55 | ≤ 7.55 | ≤ 7.55 | 11.11 | 14.6 pM | CCCCCCCCCCCC(=O)N[C@@H](CCC(=O)NCCCC[C@H](NC(=O)[C@@H](NC(=O)[C@@H](NC(=O)[C@](C)(Cc1ccccc1)NC(=O)[C@H](C)NC(=O)[C@@H](NC(=O)[C@](C)(Cc1ccccc1)NC(=O)[C@H](CCC(=O)O)NC(=O)[C@](C)(CCCCN)NC(=O)[C@H](C)NC(=O)[C@H](C)NC(=O)[C@H](CCC(=O)O)NC(=O)CNC(=O)[C@H](CCC(=O)O)NC(=O)[C@H](CC(C)C)NC(=O)[C@](C)(Cc1ccccc1)NC(=O)[C@H](CO)NC(=O)[C@](C)(CO)NC(=O)[C@@H](NC(=O)[C@H](CC(=O)O)NC(=O)[C@H](CO)NC(=O)[C@@H](NC(=O)[C@](C)(Cc1ccccc1)NC(=O)[C@H](CO)NC(=O)CNC(=O)[C@H](CCC(=O)O)NC(=O)C(C)(C)NC(=O)[C@@H](N)Cc1c[nH]cn1)[C@@H](C)O)C(C)C)[C@@H](C)CC)C(C)C)C(C)C)C(=O)NCC(=O)NCC(N)=O)C(=O)O [compound 164] |
| 10.85 | ≤ 7.57 | ≤ 7.57 | ≤ 7.57 | ≤ 7.57 | 11.22 | 10.2 pM | CCCCCCCCCCCC(=O)N[C@@H](CCC(=O)N[C@@H](CCC(=O)NCCCC[C@H](NC(=O)[C@@H](NC(=O)[C@@H](NC(=O)[C@](C)(Cc1ccccc1)NC(=O)[C@H](C)NC(=O)[C@@H](NC(=O)[C@](C)(Cc1ccccc1)NC(=O)[C@H](CCC(=O)O)NC(=O)[C@](C)(CCCCN)NC(=O)[C@H](C)NC(=O)[C@H](C)NC(=O)[C@H](CCC(=O)O)NC(=O)CNC(=O)[C@H](CCC(=O)O)NC(=O)[C@H](CC(C)C)NC(=O)[C@](C)(Cc1ccccc1)NC(=O)[C@H](CO)NC(=O)[C@](C)(CO)NC(=O)[C@@H](NC(=O)[C@H](CC(=O)O)NC(=O)[C@H](CO)NC(=O)[C@@H](NC(=O)[C@](C)(Cc1ccccc1)NC(=O)[C@H](CO)NC(=O)CNC(=O)[C@H](CCC(=O)O)NC(=O)C(C)(C)NC(=O)[C@@H](N)Cc1c[nH]cn1)[C@@H](C)O)C(C)C)[C@@H](C)CC)C(C)C)C(C)C)C(=O)NCC(=O)NCC(N)=O)C(=O)O)C(=O)O [compound 165] |
| 10.89 | ≤ 7.54 | ≤ 7.54 | ≤ 7.54 | ≤ 7.54 | 11.16 | 10 pM | CCCCCCCCCCCC(=O)NCCCCCC(=O)NCCCC[C@H](NC(=O)[C@@H](NC(=O)[C@@H](NC(=O)[C@](C)(Cc1ccccc1)NC(=O)[C@H](C)NC(=O)[C@@H](NC(=O)[C@](C)(Cc1ccccc1)NC(=O)[C@H](CCC(=O)O)NC(=O)[C@](C)(CCCCN)NC(=O)[C@H](C)NC(=O)[C@H](C)NC(=O)[C@H](CCC(=O)O)NC(=O)CNC(=O)[C@H](CCC(=O)O)NC(=O)[C@H](CC(C)C)NC(=O)[C@](C)(Cc1ccccc1)NC(=O)[C@H](CO)NC(=O)[C@](C)(CO)NC(=O)[C@@H](NC(=O)[C@H](CC(=O)O)NC(=O)[C@H](CO)NC(=O)[C@@H](NC(=O)[C@](C)(Cc1ccccc1)NC(=O)[C@H](CO)NC(=O)CNC(=O)[C@H](CCC(=O)O)NC(=O)C(C)(C)NC(=O)[C@@H](N)Cc1c[nH]cn1)[C@@H](C)O)C(C)C)[C@@H](C)CC)C(C)C)C(C)C)C(=O)NCC(=O)NCC(N)=O [compound 167] |
